# Data as given in the supplement of paper PMC10307832.
# Assays:
# Test in all cases: relative viability (nuclei count vs DMSO), 5 days (fraction); higher = more cells survive
# [1] = compound: C1=CC2=NC=CN=C2C=C1/C=C/3\C(=O)NC(=O)S3 + CC(=O)c1c(C)c2cnc(Nc3ccc(N4CCNCC4)cn3)nc2n(C2CCCC2)c1=O [Palbociclib] (partner 0.5 µM)
# Summary of the method: (§1)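 Lung cancer cell lines in 1536-well plates were dosed by pin tool the day after seeding, either with one drug alone or with a fixed anchor-drug dose plus five library-drug doses (not always all listed) in √10 steps. After 5 days, cells were fixed and their nuclei stained in one step (final 0.05% Triton X-100, 1% formaldehyde, 1 ug/ml Hoechst), then counted on 4× images. Relative viability is the nuclei count in treated wells divided by that in vehicle wells. Values are medians of duplicate plates.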
# [2] = compound: CCN1CCN(c2ccc(Nc3cc(N(C)C(=O)Nc4c(Cl)c(OC)cc(OC)c4Cl)ncn3)cc2)CC1 [BGJ398] + CC1(C)CCC(c2ccc(Cl)cc2)=C(CN2CCN(c3ccc(C(=O)NS(=O)(=O)c4ccc(N[C@H](CCN5CCOCC5)CSc5ccccc5)c(S(=O)(=O)C(F)(F)F)c4)cc3)CC2)C1 [Navitoclax] (partner 0.5 µM)
# Summary of the method: as §1
# [3] = compound: CCN1CCN(c2ccc(Nc3cc(N(C)C(=O)Nc4c(Cl)c(OC)cc(OC)c4Cl)ncn3)cc2)CC1 [BGJ398] + CS(=O)(=O)N1CCN(Cc2cc3nc(-c4cccc5[nH]ncc45)nc(N4CCOCC4)c3s2)CC1 [Pictilisib] (partner 1 µM)
# Summary of the method: as §1
# [4] = compound: CCN1CCN(c2ccc(Nc3cc(N(C)C(=O)Nc4c(Cl)c(OC)cc(OC)c4Cl)ncn3)cc2)CC1 [BGJ398] + Cc1nc(Nc2ncc(C(=O)Nc3c(C)cccc3Cl)s2)cc(N2CCN(CCO)CC2)n1 [Dasatinib] (partner 0.075 µM)
# Summary of the method: as §1
cell line,measurement,setting,value
UMC-11,relative viability,[1]; first compound 0.02 µM,0.341
same,relative viability,[1]; first compound 0.06325 µM,0.328
same,relative viability,[1]; first compound 0.2 µM,0.33
same,relative viability,[1]; first compound 0.6325 µM,0.328
same,relative viability,[1]; first compound 2 µM,0.414
same,relative viability,[2]; first compound 0.01 µM,0.343
same,relative viability,[2]; first compound 0.03162 µM,0.336
same,relative viability,[2]; first compound 0.1 µM,0.314
same,relative viability,[2]; first compound 0.3162 µM,0.382
same,relative viability,[2]; first compound 1 µM,0.307
same,relative viability,[3]; first compound 0.01 µM,0.839
same,relative viability,[3]; first compound 0.03162 µM,0.686
same,relative viability,[3]; first compound 0.1 µM,0.897
same,relative viability,[3]; first compound 0.3162 µM,0.73
same,relative viability,[3]; first compound 1 µM,0.707
same,relative viability,[4]; first compound 0.01 µM,0.463
same,relative viability,[4]; first compound 0.03162 µM,0.465
same,relative viability,[4]; first compound 0.1 µM,0.51
same,relative viability,[4]; first compound 0.3162 µM,0.454
same,relative viability,[4]; first compound 1 µM,0.443
